{
  "source": "patent US12383500B2",
  "about": "“Nanoliposome compositions and methods of using the same” (United States Government as represented by the Department …, priority 2018, dated 2025)",
  "key": {"[1]": {"test_system": "human umbilical vein ECs", "assay": "Endothelial cell immune activation (gene and protein expression of IL-8, IL-6, ICAM-1, PAI-1)", "format": "cell-based", "description": "(§1) Endothelial cell immune activation. Primary culture human umbilical vein ECs (passages 4-8, Lonza, Walkersville MD) were seeded into 6-well plates and grown to full confluence. Human umbilical vein ECs have been extensively used to study vascular cell behavior in neurodegenerative disease studies such as AD and VaD as they show similarity in properties as brain ECs, including Aβ metabolism^23, 24, expression of tight junction proteins^25 and metabolic interactions with neural cells^26. ECs were exposed to 20 hours of vehicle or medin (5 μM, dose chosen as this was the mean medin concentration found in human vascular tissue) without or with NLGM1 (300 μM). Additional replicates were also treated with NLGM1 (300 μM) plus transcription factor nuclear factor erythroid 2-related factor 2 (Nrf2) inhibitor brusatol (1 μM). EC immune activation was assessed using gene and protein expressions of inflammation-related cytokines/chemokines interleukin (IL)-8, IL-6, intercellular adhesion molecule (ICAM)-1) and plasminogen activator inhibitor (PAI)-1 (primers from IDT DNA Technologies, Coralville IL)^6, 16. Following lysis, RNA was extracted and converted to cDNA using Aurum Total RNA Mini Kit and iScript cDNA synthesis kit (Bio-Rad Laboratories, Coralville IA) with β-actin as reference normalization gene normalization. […] The conditioned cell media from treated ECs were analyzed for IL-8 and IL-6 protein by enzyme linked immunosorbent assay (ELISA) using DuoSet kit (R&D Systems, Minneapolis MN). ICAM-1 protein was measured from whole cell lysate using ICAM-1 ELISA kit (R&D Systems). PAI-1 and phosphorylated NFκB (phospho-NFκB p65, Ser536, 93H1) proteins were measured using Western blot (1:500, Cell Signaling Technology, Danvers MA)."}, "[2]": {"test_system": "human adipose and leptomeningeal arterioles", "assay": "Endothelial function of human arterioles exposed to medin", "conditions": "medin 1 μM; Aβ42 0.5 μM"}, "[3]": {"test_system": "Nrf2", "assay": "Nuclear Nrf2, HO-1 and NQO1 protein in ECs, Western blot", "format": "cell-based, human", "description": "Activated Nrf-2 protein was measured by separating the nuclear from cytosolic components using NE-PER Nuclear and Cytoplasmic Extraction kit (Thermo Scientific, Rockford IL) and using anti-Nrf2 primary antibody (1:500, Cell Signaling) on nuclear proteins using Western blot with tubulin as loading control. Heme oxygenase (HO)-1 and NAD(P)H Quinone dehydrogenase 1 (NQO1) proteins were measured from whole cell lysates using anti-HO-1 (1:1000, Cell Signaling Technology) and anti-NQO1 (1:1000, Cell Signaling) primary antibodies."}, "[4]": {"test_system": "human umbilical vein ECs", "assay": "Endothelial cell oxidative stress (superoxide, dihydroethidium fluorescence)", "format": "cell-based"}, "[5]": {"test_system": "human umbilical vein ECs", "format": "cell-based", "conditions": "medin + NLGM1 + brusatol (1 μM)"}, "[6]": {"test_system": "adipose arterioles exposed to amyloid LC proteins", "assay": "Endothelial function (max response to acetylcholine) of adipose arterioles exposed to amyloid LC proteins", "set-up": "species or system human", "conditions": "NLs conjugated with clusterin (300 ng/mL), control 91.6±2%", "description": "Attempts to formulate NLs (cholesterol and phosphatidylcholine) that are conjugated with clusterin (300 ng/mL), both non-covalently as well as covalently through PEGylation, was successful."}, "[7]": {"test_system": "adipose arterioles exposed to amyloid LC proteins", "conditions": "LC from AL light chain amyloidosis patients; cited from earlier work"}, "[8]": {"test_system": "Human primary astrocytes with human umbilical vein ECs", "assay": "3D chip astrocyte and endothelial cell coculture IL-8", "format": "cell-based", "conditions": "medin treated chips with ECs compared to medin treated chips without ECs; 20 hours", "description": "Microfluidic chip fabrication and 3D chip astrocyte and endothelial cell coculture. The microfluidic platform was fabricated in polydimethylsiloxane (PDMS) using standard SU-8 photolithography and replica molding technique, consisting of two side channels for seeding of endothelial cells (ECs) and a central region for astrocyte culture. The dimensions of the side channels' (length, width and height, are 4 mm, 250 μm and 200 μm respectively. The width of the 3D central region is 2 mm Elliptical micro-posts were localized within the central tissue region (500 um width, 100 um height) with specific micro-post spacing to optimize alignment of the astrocytes, while maintaining cellular connectivity and paracrine signaling. Creation of the master silicon wafer through photolithography was executed through spin-coating of SU-8 on a wafer to a height of 200 μm. The wafer was soft-baked, then exposed to UV through a transparent photomask with the chip design. After post-baking, the developed wafer was used as the substrate for soft lithography with PDMS replica molding. A PDMS base: curing agent ratio of 10:1 was used. Then, the PDMS channels were bonded to glass slides through oxygen plasma. […]\nHuman umbilical vein ECs were seeded into the side channels (2×10^6 cells/mL in EC media) overnight. […] Conditioned media IL-8 were measured using ELISA."}, "[9]": {"test_system": "NFκB", "assay": "NFκB activation (phosphorylated NFκB) in ECs, Western blot", "format": "cell-based, human", "conditions": "post-exposure to medin", "description": "as §1"}, "[10]": {"test_system": "Human primary astrocytes", "assay": "Astrocyte monoculture IL-8 production", "format": "cell-based", "conditions": "astrocytes exposed 20 hours to conditioned media from medin (5 μM)-treated ECs", "description": "Astrocyte monoculture. Human primary astrocytes (passage 3, Gibco, Madison WI) were seeded in gelatin matrix (4×10^4 cells/cm^2) coated plates, allowed to attach overnight and exposed for 20 hours to vehicle, medin (5 μM), conditioned media from vehicle-treated ECs (10% vol/vol exchange) or conditioned media from medin (5 μM)-treated ECs. Conditioned media IL-8 were measured by ELISA."}, "[11]": {"conditions": "ECs 20 hours, medin 5 μM without or with co-treatment"}, "[12]": {"conditions": "medin + NLGM1 + brusatol (1 μM)"}, "[13]": {"conditions": "ECs 20 hours, medin 5 μM without or with co-treatment, ELISA of conditioned media"}},
  "data": [
    {"molecule": "[O-][S+](c1ccccc1)c1ccc2nnnn2n1", "note": "(stereo not shown) [RO106-9920, reference compound]", "values": [
      {"measurement": "EC ICAM-1 gene expression", "setting": "[1]; [11]", "value": "abolished"},
      {"measurement": "EC IL-6 gene expression", "setting": "[1]; [11]", "value": "abolished"},
      {"measurement": "EC IL-8 gene expression", "setting": "[1]; [11]", "value": "abolished"},
      {"measurement": "EC PAI-1 gene expression", "setting": "[1]; [11]", "value": "abolished"}
    ]},
    {"molecule": "Aβ42: beta amyloid peptide", "values": [
      {"measurement": "endothelial and smooth muscle dysfunction compared to control response", "setting": "[2]", "value": "caused endothelial, but not smooth muscle dysfunction"}
    ]},
    {"molecule": "brusatol", "values": [
      {"measurement": "increase in HO-1 by NLGM1 co-treatment with medin", "setting": "[3]; [12]", "value": "abolished"},
      {"measurement": "increase in NQO1 by NLGM1 co-treatment with medin", "setting": "[3]; [12]", "value": "abolished"},
      {"measurement": "protective effect of NLGM1 against medin-induced EC immune activation", "setting": "[1]; medin + NLGM1 + brusatol (1 μM), FIG. 8H-K", "value": "did not abolish"},
      {"measurement": "protective effect of NLGM1 on medin-induced superoxide production", "setting": "[4]; [12]", "value": "abolished"},
      {"measurement": "protective effect of NLGM1 in terms of cell viability", "setting": "[5]", "value": "reversed"}
    ]},
    {"molecule": "free clusterin: 80-kDa chaperone glycoprotein; sCLU isoform, commercial human recombinant clusterin protein", "values": [
      {"measurement": "max response to acetylcholine", "setting": "[6]", "value": "86.4±3.9", "unit": "%"},
      {"measurement": "endothelial dysfunction in human arterioles exposed to amyloidogenic light chain (LC) proteins", "setting": "[7]", "value": "reversed"}
    ]},
    {"molecule": "medin: recombinant 50-amino acid amyloid peptide, cleavage product of milk fat globule-EGF factor 8 protein", "values": [
      {"measurement": "astrocyte media IL-8", "setting": "[8]", "value": "significantly higher"},
      {"measurement": "NFκB activation (phosphorylated NFκB) in ECs, peak", "setting": "[9]", "value": 1, "unit": "h"},
      {"measurement": "NFκB activation (phosphorylated NFκB) in ECs, persistence", "setting": "[9]", "value": 20, "unit": "h"},
      {"measurement": "NFκB activation (phosphorylated NFκB) in ECs, start", "setting": "[9]", "value": 15, "unit": "min"},
      {"measurement": "astrocyte IL-8 production", "setting": "[10]", "value": "significant increase"},
      {"measurement": "nuclear Nrf2 (Nrf2 activation)", "setting": "[3]; ECs treated with the substance alone", "value": "no accompanying Nrf2 activation"},
      {"measurement": "EC ICAM-1 gene expression", "setting": "[1]; [11]", "value": "increased"},
      {"measurement": "EC IL-6 gene expression", "setting": "[1]; [11]", "value": "increased"},
      {"measurement": "EC IL-8 gene expression", "setting": "[1]; [11]", "value": "increased"},
      {"measurement": "EC PAI-1 gene expression", "setting": "[1]; [11]", "value": "increased"},
      {"measurement": "EC IL-6 protein expression", "setting": "[1]; [13]", "value": "increased"},
      {"measurement": "EC IL-8 protein expression", "setting": "[1]; [13]", "value": "increased"},
      {"measurement": "EC ICAM-1 protein expression", "setting": "[1]; ECs 20 hours, medin 5 μM without or with co-treatment, ELISA of whole cell lysate", "value": "increased"},
      {"measurement": "EC PAI-1 protein expression", "setting": "[1]; ECs 20 hours, medin 5 μM without or with co-treatment, Western blot", "value": "increased"},
      {"measurement": "EC superoxide production", "setting": "[4]; ECs 20 hours, medin without or with NLGM1", "value": "increased"},
      {"measurement": "endothelial and smooth muscle dysfunction compared to control response", "setting": "[2]", "value": "caused endothelial, but not smooth muscle dysfunction"}
    ]}
  ]
}
